Common to all, as to assay type: in vivo, mouse
One series concerns PTEN mRNA. Briefly: PTEN mRNA levels in liver, kidney and fat, Balb/c mice, single 8 μmol/kg i.p. (Example 6, Table 48). To be noted: 8 μmol/kg single i.p., 72 h, saline = 100. The source says:
(§1) Each dose group consisted of four animals. Shown in Table 46 are the sequences and motifs of the PTEN antisense compounds used in this study. Bolded residues indicate 2′-O-methoxyethyl moieties (2′-MOE) and italicized residues indicate Methyleneoxy BNA nucleotides. Each antisense compound comprises phosphorothioate linkages throughout. In addition, the cytosine residues in the gap of ISIS 384073 and in the wings of ISIS 392056, ISIS 392057, ISIS 392061 and ISIS 392063 are replaced with 5-methylcytosines. Antisense compounds target published PTEN nucleic acids, including Genbank Accession No. U92437.1 (SEQ ID NO: 13).
(§2) Mice were sacrificed 72 hours following injection to determine serum transaminase levels (Table 47); liver and spleen weights (Table 47); and PTEN mRNA levels in liver, kidney and fat (Table 48), according to procedures described herein and well know to one of ordinary skill in the art.

Series [1] is described as follows: Transaminase levels, liver and spleen weights, body weight (Example 6, Table 47). As to conditions: 8 μmol/kg single i.p.; 72 h; Balb/c mice.
Text: as §1, §2

For another series, the system named is GCGR mRNA. The experiment in a line: GCGR mRNA levels in liver of C57/BL6 mice, single i.p. dose (Example 4, Tables 35-41). To be noted: 48 h. How it is done: (§3) Eight-week old male C57/BL6 mice (Jackson Laboratory, Bar Harbor, Me.) were administered a single dose of GCGR oligonucleotide by intraperitoneal injection at a concentration of […]. Each dose group consisted of four animals. Shown in Table 31 are the sequences, motifs and conjugates of the GCGR antisense compounds used in this study. Bolded residues indicate 2′-O-methoxyethyl (2′-MOE) moieties. All compounds comprise phosphorothioate internucleoside linkages throughout and each cytosine is replaced with 5-methylcytosine. ISIS 386626, ISIS 386627 and ISIS 386628 further comprise a C16 conjugate group attached to the 2′-O position of the sugar via a diamide linkage (2′-OCH2C(═O)N(H)(CH2)4N(H)C(═O)—(CH2)15CH3). GCGR antisense compounds target published GCGR sequences, including Genbank® Accession No. BC031885.1 (SEQ ID NO: 7).
(§4) Mice were sacrificed 48 hours following injection to determine serum transaminase levels (Table 32); liver, white adipose tissue (WAT), spleen and kidney weight (Table 33); cholesterol, triglyceride and glucose levels (Table 34); GCGR mRNA levels (Tables 35-41); and full-length and total oligonucleotide concentration in liver and kidney (Table 42). Endpoints were assessed using methods described herein and well known to those of ordinary skill in the art. Data is included from a pre-treatment bleed (Pre-Bleed) and post-treatment bleed (Post-Bleed).
To determine whether the phenotypic changes shown above correlated with a decrease in GCGR mRNA, treated animals were evaluated for levels of target mRNA in liver by real time PCR according to methods described herein. Tables 35 to 41 show results from direct comparisons of the antisense compounds targeting GCGR nucleic acid for their effect on target expression. Results are expressed as percent of saline control.

Series [2] can be described thus: ALT & AST levels, C57/BL6 mice (Example 4, Table 32). To be noted: for ALT Pre-Bleed / AST Pre-Bleed: pre-treatment bleed; for ALT Post-Bleed / AST Post-Bleed: 48 hours following injection. How it is done:
as §3, §4

The nature of series [3]: Organ weights: liver, white adipose tissue, spleen, kidney (Example 4, Table 33). As to conditions: 48 h, C57/BL6 mice. How it is done:
as §3, §4

Series [4] can be described thus: Triglyceride, cholesterol and glucose levels, pre-bleed and post-bleed (Example 4, Table 34). Also noted: TRIG Pre-Bleed / TRIG Post-Bleed / CHOL Pre-Bleed / CHOL Post-Bleed / Glucose Pre-Bleed / Glucose Post-Bleed: unit not given here. To be noted: C57/BL6 mice; for CHOL Pre-Bleed / Glucose Pre-Bleed / TRIG Pre-Bleed: pre-treatment bleed; for CHOL Post-Bleed / Glucose Post-Bleed / TRIG Post-Bleed: post-treatment bleed, 48 h.

Series [5] can be described thus: Total and full-length antisense compound concentrations in liver and kidney (Example 4, Table 42). To be noted: C57/BL6 mice; single i.p. dose; 48 h; dose not given. As to the method:
as §3, §4
Treatment with the 2-10-2 MOE gapmers led to a significant dose-dependent decrease in GCGR mRNA expression. […] To determine whether the observed increase in efficiency with the short antisense compounds is due to an increase in antisense compound accumulation, full-length and total antisense compound concentration in the liver and kidney were determined.

Strand notation (5' to 3'): a small letter for the sugar, then the base; units joined by * are phosphorothioate-linked, units joined directly phosphodiester-linked; [ ] holds rarer units or linkages, { } end groups; capitals alone tell only the bases. e = 2'-O-(2-methoxyethyl) (MOE); l = locked nucleic acid (LNA); [5mC] = 5-methylcytosine; d = 2'-deoxy (DNA)

For the substance “141923 (antisense CCTTCCCTGAAGGTTCCTCC; sugars from the 5' end e5 d10 e5, all phosphorothioate, methylation of C not given here) [compound 141923]”, in the series on PTEN mRNA, the “% PTEN mRNA levels in Fat” value amounted to 118%, the “% PTEN mRNA levels in Kidney” value was 133% and the “% PTEN mRNA levels in Liver” value worked out at 102%. For the same substance, in series [1], the ALT worked out at 34.8 IU/L, the AST worked out at 89.5 IU/L, the “Liver Weight” value came to 101 % Saline and the “Spleen Weight” value is 108 % Saline.
For the substance “384073 (antisense lG*lC*lT*dA*dG*d[5mC]*d[5mC]*dT*d[5mC]*dT*dG*dG*dA*lT*lT*lT) [compound 384073]”, in the series with PTEN mRNA, the “% PTEN mRNA levels in Fat” value was 77%, the “% PTEN mRNA levels in Kidney” value amounted to 74% and the “% PTEN mRNA levels in Liver” value worked out at 24%. In addition, in series [1], the ALT amounted to 29.3 IU/L, the AST is on record as 57.8 IU/L, the “Liver Weight” value is given as 115 % Saline and the “Spleen Weight” value stood at 111 % Saline.
For “386628 (antisense TGTCTTGCTGCTTT; chemistry not fully specified) [compound 386628]”, the “GCGR mRNA levels in liver” value in the series on GCGR mRNA (6.25 mg/kg single i.p., Table 38 comparison ISIS 148364 & ISIS 386628) is 77% of saline control; in the series on GCGR mRNA (6.25 mg/kg single i.p., Table 41 comparison ISIS 386628 & ISIS 386594), 97% of saline control; in the series on GCGR mRNA (12.5 mg/kg single i.p., Table 38 comparison ISIS 148364 & ISIS 386628), 53% of saline control; in the series on GCGR mRNA (12.5 mg/kg single i.p., Table 41 comparison ISIS 386628 & ISIS 386594), 38% of saline control; with GCGR mRNA (25 mg/kg single i.p., Table 38 comparison ISIS 148364 & ISIS 386628), 18% of saline control; in the series with GCGR mRNA (25 mg/kg single i.p., Table 41 comparison ISIS 386628 & ISIS 386594) it was 13% of saline control. Also, the “GCGR mRNA levels in liver” value in the series on GCGR mRNA (50 mg/kg single i.p., Table 38 comparison ISIS 148364 & ISIS 386628) is on record as 2% of saline control; with GCGR mRNA (50 mg/kg single i.p., Table 41 comparison ISIS 386628 & ISIS 386594), 4% of saline control. The “ALT Pre-Bleed” value amounted to 22 IU/L in series [2] (6.25 mg/kg dose group), 28 IU/L in series [2] (12.5 mg/kg dose group), 24 IU/L in series [2] (25 mg/kg dose group) and 28 IU/L in series [2] (50 mg/kg dose group). The “AST Pre-Bleed” value in series [2] (6.25 mg/kg dose group) is reported as 40 IU/L; in series [2] (12.5 mg/kg dose group), 42 IU/L; in series [2] (25 mg/kg dose group) it was 40 IU/L; in series [2] (50 mg/kg dose group), 44 IU/L. Also, the “ALT Post-Bleed” value was 29 IU/L in series [2] (single i.p. dose 6.25 mg/kg), 35 IU/L in series [2] (single i.p. dose 12.5 mg/kg), 32 IU/L in series [2] (single i.p. dose 25 mg/kg) and 68 IU/L in series [2] (single i.p. dose 50 mg/kg). The “AST Post-Bleed” value in series [2] (single i.p. dose 6.25 mg/kg) is 59 IU/L; in series [2] (single i.p. dose 12.5 mg/kg), 75 IU/L; in series [2] (single i.p. dose 25 mg/kg), 57 IU/L; in series [2] (single i.p. dose 50 mg/kg), 76 IU/L. The “Organ weight: Kidney” value in series [3] (6.25 mg/kg single i.p.) is 102 % saline control; in series [3] (12.5 mg/kg single i.p.), 99 % saline control; in series [3] (25 mg/kg single i.p.) it was 109 % saline control; in series [3] (50 mg/kg single i.p.) it was 99 % saline control. In addition, the “Organ weight: Liver” value in series [3] (6.25 mg/kg single i.p.) is 98 % saline control; in series [3] (12.5 mg/kg single i.p.), 101 % saline control; in series [3] (25 mg/kg single i.p.), 102 % saline control; in series [3] (50 mg/kg single i.p.), 104 % saline control. Also, the “Organ weight: Spleen” value was determined as 151 % saline control in series [3] (6.25 mg/kg single i.p.), 114 % saline control in series [3] (12.5 mg/kg single i.p.), 113 % saline control in series [3] (25 mg/kg single i.p.) and 126 % saline control in series [3] (50 mg/kg single i.p.). The “Organ weight: WAT” value in series [3] (6.25 mg/kg single i.p.) stood at 106 % saline control; in series [3] (12.5 mg/kg single i.p.) it was 111 % saline control; in series [3] (25 mg/kg single i.p.), 97 % saline control; in series [3] (50 mg/kg single i.p.), 100 % saline control. Besides, the “CHOL Pre-Bleed” value came to 83 in series [4] (6.25 mg/kg group), 90 in series [4] (12.5 mg/kg group), 84 in series [4] (25 mg/kg group) and 88 in series [4] (50 mg/kg group). The “Glucose Pre-Bleed” value was 228 in series [4] (6.25 mg/kg group), 231 in series [4] (12.5 mg/kg group), 210 in series [4] (25 mg/kg group) and 209 in series [4] (50 mg/kg group). For the same substance, the “TRIG Pre-Bleed” value came to 117 in series [4] (6.25 mg/kg group), 90 in series [4] (12.5 mg/kg group), 102 in series [4] (25 mg/kg group) and 102 in series [4] (50 mg/kg group). The “CHOL Post-Bleed” value in series [4] (6.25 mg/kg single i.p.) is listed as 85; in series [4] (12.5 mg/kg single i.p.), 94; in series [4] (25 mg/kg single i.p.), 85; in series [4] (50 mg/kg single i.p.) it was 95. For the same substance, the “Glucose Post-Bleed” value was 229 in series [4] (6.25 mg/kg single i.p.), 240 in series [4] (12.5 mg/kg single i.p.), 223 in series [4] (25 mg/kg single i.p.) and 232 in series [4] (50 mg/kg single i.p.). Also, the “TRIG Post-Bleed” value in series [4] (6.25 mg/kg single i.p.) came out at 121; in series [4] (12.5 mg/kg single i.p.), 123; in series [4] (25 mg/kg single i.p.), 129; in series [4] (50 mg/kg single i.p.) it was 98. In addition, the “Full-length antisense compound concentration, Kidney” value in series [5] came out at 305 µg/g. Further, in series [5], the “Full-length antisense compound concentration, Liver” value is 202 µg/g. Also, the “Total antisense compound concentration, Kidney” value in series [5] turned out to be 496 µg/g. Moreover, the “Total antisense compound concentration, Liver” value in series [5] stood at 286 µg/g.
Regarding “391172 (antisense lC*lT*dA*dG*dC*dC*dT*dC*dT*dG*dG*dA*lT*lT*lT) [compound 391172]”, in the series with PTEN mRNA, the “% PTEN mRNA levels in Fat” value amounted to 101%, the “% PTEN mRNA levels in Kidney” value came to 63% and the “% PTEN mRNA levels in Liver” value was determined as 18%. Further, in series [1], the ALT is 32.8 IU/L, the AST worked out at 48.5 IU/L, the “Liver Weight” value came out at 120 % Saline and the “Spleen Weight” value is listed as 112 % Saline.
For the substance “392061 (antisense l[5mC]*lT*dA*dG*dC*dC*dT*dC*dT*dG*dG*dA*lT*lT) [compound 392061]”, in the series on PTEN mRNA, the “% PTEN mRNA levels in Fat” value is 85%, the “% PTEN mRNA levels in Kidney” value is 61% and the “% PTEN mRNA levels in Liver” value worked out at 24%. For the same substance, in series [1], the ALT turned out to be 42.0 IU/L, the AST is 189 IU/L, the “Liver Weight” value came to 123 % Saline and the “Spleen Weight” value turned out to be 111 % Saline.

Source of the values: patent US8188059B2, “Compounds and methods for modulating expression of GCGR” (Isis Pharmaceuticals, Inc., priority 2006, dated 2012).
